Structures can show the parent of a compound that is named as a salt. Where two headings read alike, the source gives them in different places.
What was measured:
[1] = system: platelet aggregation; conditions: patients; 10 μg/kg bolus followed by 0.15 μg/kg/min infusion; 15 to 60 minutes after bolus; monohydrochloride; cited from earlier work
[2] = system: platelet aggregation; conditions: patients, 15 through 60 minutes, 20 μM adenosine diphosphate, monohydrochloride
Method: (§1) Patients were treated with a 20 μg/kg bolus of tirofiban hydrochloride followed by a 0.15 μg/kg/min infusion for 18-24 hours or a 25 μg/kg bolus followed by the same infusion. Enrollment of subjects in the panel with the 20 μg/kg bolus (n=15/panel) was completed and the clinical effects and pharmacodynamic properties were evaluated before subjects were enrolled in the panel with the 25 μg/kg bolus. Patients were treated with aspirin (325 mg before the procedure and daily) and unfractionated heparin (target activated clotting time 250 seconds). Clopidogrel (300 mg and then 75 mg daily)(commercially available as PLAVIX®) was administered at least 45 minutes after the start of tirofiban hydrochloride. All other medications were administered at the discretion of the attending cardiologist. Sheath removal was performed when the activated clotting time was less than 175 seconds unless a closure device was used.

[3] = system: capacity of platelets to bind fibrinogen; conditions: 25 μg/kg (high) bolus compared with 20 μg/kg bolus; 1 μM adenosine diphosphate; flow cytometry
Method: Blood was obtained after 5 minutes for analysis by flow cytometry. […] Blood for flow cytometry was anticoagulated with corn trypsin inhibitor, a specific inhibitor of coagulation factor XIIa without effect on other coagulation factors (Schneider et al., Circulation (1997) vol. 96 pp. 2877-83). […] For flow cytometry, samples were processed and platelets were fixed at each site. […] Light transmission aggregometry and rapid platelet function analyzer were performed with […] -chloromethyl ketone as the anticoagulant and flow cytometry was performed with blood anticoagulated with corn trypsin inhibitor.

[4] = for major bleeding episodes: patients
Method: as §1, with “used. […] The occurrence of 3 major bleeding episodes (as defined by the American College of Cardiology Task force (Cannon et al. J. Am. Coll. Cardiol. (2001) vol. 38 pp. 2114-30) in each panel was a pre-specified criteria for termination of the study.” for “used.”

- major bleeding episodes ([4]; 20 μg/kg bolus followed by 0.15 μg/kg/min infusion for 18-24 hours): No major bleeding episode occurred
- major bleeding episodes ([4]; 25 μg/kg bolus followed by 0.15 μg/kg/min infusion for 18-24 hours): No major bleeding episode occurred
SMILES: CCCCS(=O)(=O)N[C@@H](Cc1ccc(OCCCCC2CCNCC2)cc1)C(=O)O [tirofiban hydrochloride, N-(butylsulfonyl)-O-[4-(4-piperidinyl)butyl]-L-tyrosine monohydrochloride]
- average inhibition of maximal aggregation / % Inhibition of platelet aggregation 15-60 minutes after bolus injection [1]: 61-66%
- average extent of inhibition of platelet aggregation / % Inhibition of platelet aggregation 15-60 minutes after bolus injection ([2]; 20 μg/kg bolus followed by 0.15 μg/kg/min infusion): 84-89%
- average extent of inhibition of platelet aggregation / % Inhibition of platelet aggregation 15-60 minutes after bolus injection ([2]; 25 μg/kg bolus followed by 0.15 μg/kg/min infusion, listed as tirofiban): 92-95%
- average extent of inhibition of platelet aggregation / % Inhibition of platelet aggregation 15-60 minutes after bolus injection ([2]; 25 μg/kg bolus followed by 0.15 μg/kg/min infusion): greater than 90%
- extent of inhibition of the capacity to bind fibrinogen [3]: greater
- undesirable side effects ([4]; about 25 μg/kg bolus compared with conventional bolus): absence of increased undesirable side effects

Reference: patent publication US6770660B2, “Method for inhibiting platelet aggregation” (Artery LLC, priority 2002, dated 2004)
